Consider four compounds from patent US20050170393A1, “OATPB transporters expressed in blood brain barrier cells” (Xenoport, Inc., priority 2004, published 2005).

Data set [1] concerns the target T1, OATPB transporter (Homo sapiens, UniProt O94956).
T1 construct: expressed in transfected cells
T1 sequence (O94956 1-709): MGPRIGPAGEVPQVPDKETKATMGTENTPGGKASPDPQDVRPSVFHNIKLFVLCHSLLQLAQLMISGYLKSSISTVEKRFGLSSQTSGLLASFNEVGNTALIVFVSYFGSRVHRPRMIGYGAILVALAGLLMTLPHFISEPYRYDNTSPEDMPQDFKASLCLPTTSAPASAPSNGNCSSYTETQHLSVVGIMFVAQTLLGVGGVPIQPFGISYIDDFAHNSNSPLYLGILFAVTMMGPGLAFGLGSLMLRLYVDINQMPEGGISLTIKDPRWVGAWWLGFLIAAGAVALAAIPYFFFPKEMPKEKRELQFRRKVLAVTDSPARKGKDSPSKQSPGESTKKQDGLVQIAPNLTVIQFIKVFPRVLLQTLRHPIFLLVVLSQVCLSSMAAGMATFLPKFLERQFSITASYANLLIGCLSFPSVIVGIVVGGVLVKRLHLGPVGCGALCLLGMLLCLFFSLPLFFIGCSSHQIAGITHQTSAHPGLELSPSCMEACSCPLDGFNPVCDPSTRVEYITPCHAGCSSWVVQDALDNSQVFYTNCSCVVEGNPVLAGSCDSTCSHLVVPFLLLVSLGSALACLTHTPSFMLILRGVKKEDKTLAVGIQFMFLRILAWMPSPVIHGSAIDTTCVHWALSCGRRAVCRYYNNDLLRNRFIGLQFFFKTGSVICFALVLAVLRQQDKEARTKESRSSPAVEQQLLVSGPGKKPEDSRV
Nature of the data set: Direct uptake assay in tet-induced and non-induced OATPB-HEK/TREx cells (LC-MS-MS). Type of data set: cell-based. To be noted: 125, 250, 500 or 1000 μM, 20 minutes at room temperature, with and without tetracycline (FIG. 7). The text has this:
To increase the throughput of OATPB compound screening, a mammalian cell assay was developed using an inducible expression system. OATPB was subcloned into a plasmid that allows for inducible expression by tetracycline (TREx plasmid, Invitrogen Inc. Carlsbad Calif.). The OATPB-HEK plasmid was […] transfected into a HEK cell line engineered for tetracycline-inducible expression (HEK-TREx, Invitrogen) and stable clones were isolated by G418 selection and […] (FACS).
In order to measure whether test compounds are actively translocated across the membrane, and to determine the maximal transport rate, a direct uptake method can be used in which transport of a test compound is measured by mass spectroscopy. For direct uptake measurements using mass spectroscopy, OATPB-HEK/TREx cells can be prepared similarly to those used for competition studies (described above). […] The supernatant is analyzed by LC-MS-MS. As a negative control, uptake is measured in cells not treated with tetracycline, or by competition with another substrate such as estrone-3-sulfate or bromosulphophthalein (3 mM).
The uptake of PGFα by OATPB-HEK/TREx cells was measured as described in Example 3. […] The supernatant was analyzed by LC-MS-MS. As a negative control, uptake was measured in cells not treated with tetracycline.

Data set [2] deals with T2, OATPB (Homo sapiens, UniProt O94956).
T2 sequence (O94956 1-709): T1 sequence (O94956 1-709)
To be noted: cited from earlier work.

The target of data set [3] is T2, OATPB. Description: ^3H-estrone sulfate uptake into oocytes injected with OATPB cRNA. To be noted: oocytes expressing OATPB versus noninjected controls (FIG. 2). The arrangement: expressed in transfected cells; host or cells: Xenopus oocytes injected with OATPB cRNA. Type of data set: cell-based.
In data set [4] the target is T3, PgP (Homo sapiens, UniProt P08183).
T3 construct: expressed in transfected cells; host or cells: MDCK cells
T3 sequence (P08183 whole entry): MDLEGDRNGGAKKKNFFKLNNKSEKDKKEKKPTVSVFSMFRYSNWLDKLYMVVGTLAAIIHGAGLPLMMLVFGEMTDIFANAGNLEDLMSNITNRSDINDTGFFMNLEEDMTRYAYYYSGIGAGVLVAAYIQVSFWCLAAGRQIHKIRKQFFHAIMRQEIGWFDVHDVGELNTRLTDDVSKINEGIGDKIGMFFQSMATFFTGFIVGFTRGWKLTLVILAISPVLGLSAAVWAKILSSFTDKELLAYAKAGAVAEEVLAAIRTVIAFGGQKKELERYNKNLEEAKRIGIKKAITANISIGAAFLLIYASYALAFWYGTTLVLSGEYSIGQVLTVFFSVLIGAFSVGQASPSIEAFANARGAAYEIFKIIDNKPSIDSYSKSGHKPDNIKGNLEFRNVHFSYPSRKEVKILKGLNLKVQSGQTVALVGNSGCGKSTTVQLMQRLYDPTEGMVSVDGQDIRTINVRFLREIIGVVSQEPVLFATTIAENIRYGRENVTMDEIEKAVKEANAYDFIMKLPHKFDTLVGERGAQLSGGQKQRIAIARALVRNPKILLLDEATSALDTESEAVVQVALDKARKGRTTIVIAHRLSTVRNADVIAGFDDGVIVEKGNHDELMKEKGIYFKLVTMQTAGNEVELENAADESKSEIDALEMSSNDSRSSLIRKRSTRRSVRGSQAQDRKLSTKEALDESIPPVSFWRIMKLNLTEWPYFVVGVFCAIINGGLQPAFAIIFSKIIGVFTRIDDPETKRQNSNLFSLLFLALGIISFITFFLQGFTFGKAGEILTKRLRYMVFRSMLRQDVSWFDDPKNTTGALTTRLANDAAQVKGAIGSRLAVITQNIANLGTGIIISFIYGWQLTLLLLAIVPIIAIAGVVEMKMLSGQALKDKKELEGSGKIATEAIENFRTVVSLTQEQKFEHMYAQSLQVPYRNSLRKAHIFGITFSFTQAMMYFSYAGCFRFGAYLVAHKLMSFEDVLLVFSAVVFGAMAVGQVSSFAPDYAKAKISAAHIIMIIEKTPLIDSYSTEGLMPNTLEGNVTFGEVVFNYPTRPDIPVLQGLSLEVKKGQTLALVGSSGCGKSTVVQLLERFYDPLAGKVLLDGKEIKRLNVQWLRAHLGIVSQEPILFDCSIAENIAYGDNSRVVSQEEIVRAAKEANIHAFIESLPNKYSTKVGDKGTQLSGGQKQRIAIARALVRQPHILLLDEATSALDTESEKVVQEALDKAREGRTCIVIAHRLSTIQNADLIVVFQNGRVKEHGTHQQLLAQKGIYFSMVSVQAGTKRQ
Description: Cellular transwell monolayer efflux assay in MDCK cells transfected with TREx-PgP. It is filed as cell-based. Here is the method: A third type of efflux transporter assay is the cellular transwell monolayer efflux assay. […] The cells form a polarized monolayer. The transwell dishes have apical and basolateral chambers that are separated by the filter membrane on which the polarized monolayer is situated. Assays are performed by placing a test compound in either the apical or basolateral chamber, followed by sampling the opposite chamber after a predetermined period of time such as 60-120 minutes and measuring the amount of the test compound. The test compound can be measured by methods such as radiolabel detection or LC-MS-MS analysis. Assays are performed in the presence and absence of an efflux transporter inhibitor or competitor. Efflux transporter inhibitors or competitors increase apical to basolateral transport and decrease basolateral to apical transport of compounds that are efflux transporter substrates. Apparent permeability (Papp) of test compounds is measured. […] Test compounds that generate ratios between 1.5 and 2.0 require additional testing to determine if they are efflux transporter substrates.
MDCK cells transfected with the tetracycline-inducible TREx-PgP expression vector were seeded on polycarbonate filter membranes in transwell dishes and grown for 3-5 days, yielding a polarized monolayer with tight junctions between cells. […] The left set of bars depicts apical to basolateral transport, while the right set of bars depicts basolateral to apical transport.

[5] abbreviates: 2.5 nM ^3H-vinblastine, in the presence of 250 μM verapamil versus absence (FIG. 6).

For the compound `CCCCC[C@H](O)/C=C/[C@@H]1[C@@H](C/C=C\CCCC(=O)O)[C@@H](O)C[C@H]1O` [PGFα], the OATPB substrate status result in data set [1] was “is a substrate for the OATPB transporter”. Regarding `C[C@]12CC[C@@H]3c4ccc(OS(=O)(=O)O)cc4CC[C@H]3[C@@H]1CCC2=O` [Estrone-3-sulfate], the “Reported Affinity for OATPB” value in data set [2] is 0.1 mM. The “^3H-estrone-3-sulfate uptake” value in data set [3] is recorded as “higher levels of ^3H-estrone-3-sulfate uptake than noninjected controls”. `O=C1OC(c2ccc(O)c(S(=O)(=O)O)c2)(c2ccc(O)c(S(=O)(=O)O)c2)c2c(Br)c(Br)c(Br)c(Br)c21` [Bromosulfophthalein]: the “Reported Affinity for OATPB” value in data set [2] is 0.04 mM. Consider `CC[C@]1(O)C[C@@H]2CN(CCc3c([nH]c4ccccc34)[C@@](C(=O)OC)(c3cc4c(cc3OC)N(C)[C@H]3[C@@](O)(C(=O)OC)[C@H](OC(C)=O)[C@]5(CC)C=CCN6CC[C@]43[C@@H]65)C2)C1` [^3H-vinblastine], for which, in data set [4] (setting [5]), the “Apical to basolateral transport” value is recorded as “strongly increased” and the “Basolateral to apical transport” value is given as “strongly decreased”. Moreover, the PgP substrate status result in data set [4] (conclusion from the transwell assay with and without verapamil) was “is a substrate of PgP”.
